Where two headings read alike, the source gives them in different places.
What was measured:
[1] = test system: Spodoptera frugiperda; assay: Spodoptera frugiperda spray test; assay type: in vivo; conditions: after 7 days, maize leaf discs; for pest or weed control at 500 g/ha / pest or weed control at 100 g/ha: Spodoptera frugiperda, foliar, 168 h, read-out: efficacy (caterpillars killed)
Method in brief: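 Efficacy in % was scored at 7 days against armyworm caterpillars placed on dried, compound-sprayed Zea mays leaf discs. Compound was dissolved in acetone/dimethylformamide and diluted in water with 1000 ppm alkylaryl polyglycol ether. 100% means all caterpillars were killed.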

[2] = log P by HPLC on reversed-phase column (C 18), EEC Directive 79/831 Annex V.A8; assay type: physicochemical; conditions: 55° C.; for LOGP_HCOOH: log P (HCOOH); for chromatographic logP: reversed-phase HPLC column (C 18)
Method: Temperature: 55° C. […] Called log P (HCOOH) in the table. […] Called log P (neutral) in the table.

[3] = test system: Phaedon cochleariae; assay: Phaedon cochleariae spray test; assay type: in vivo; conditions: after 7 days, Chinese cabbage leaf discs; for pest or weed control at 100 g/ha / pest or weed control at 500 g/ha: Phaedon cochleariae, foliar, 168 h, read-out: efficacy (beetle larvae killed)
Method in brief: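 Larval kill read at day 7 as percent, where 100% means every larva dead and 0% none; larvae were placed on dried Brassica pekinensis leaf discs previously sprayed with the formulation (acetone/dimethylformamide solvent, alkylaryl polyglycol ether emulsifier, water).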

[4] = acidic range at pH 2.7, 0.1% aqueous formic acid and acetonitrile, HPLC on reversed-phase column (C 18)
[5] = log P, neutral range, HPLC on reversed-phase column (C 18)
[6] = pH 2.7, LC-MS acidic range, pH 2.7, 0.1% formic acid/acetonitrile, read-out: log P (acidic) / log P (HCOOH)
[7] = pH 7.8, LC-MS neutral range, pH 7.8, ammonium hydrogencarbonate/acetonitrile, read-out: log P (neutral)
[8] = acidic range pH 2.7, 0.1% aqueous formic acid and acetonitrile, reversed-phase column (C 18)
[9] = log P (neutral), HPLC reversed-phase column (C 18)

| SMILES | pest or weed control at 500 g/ha ([1]; application rate 500 g/ha) [%] | LOGP_HCOOH [2, 4] | LOGP_NEUTRAL [2, 5] | chromatographic logP [2, 6] | chromatographic logP [2, 7] | pest or weed control at 100 g/ha ([3]; application rate 100 g/ha) [%] | pest or weed control at 500 g/ha ([3]; application rate 500 g/ha) [%] | efficacy (caterpillars killed) ([1]; application rate 500 g/ha) [%] | efficacy (beetle larvae killed) ([3]; application rate 500 g/ha) [%] | efficacy (caterpillars killed) ([1]; application rate 100 g/ha) [%] | efficacy (beetle larvae killed) ([3]; application rate 100 g/ha) [%] | pest or weed control at 100 g/ha ([1]; application rate 100 g/ha) [%] | LOGP_HCOOH [2, 8] | LOGP_NEUTRAL [2, 9] |
| --- | --- | --- | --- | --- | --- | --- | --- | --- | --- | --- | --- | --- | --- | --- |
| N#Cc1ccc(CNC(=O)c2cc(-c3ccc(C(F)(F)F)cn3)cc(NC(=O)C3CC3)n2)cc1 [Example I-174, N-(4-Cyanobenzyl)-6′-[(cyclopropylcarbonyl)amino]-5-(trifluoromethyl)-2,4′-bipyridine-2′-carboxamide] | 100 | 3.25 | 3.22 | 3.25 | 3.22 | 100 | 100 | – | – | – | – | – | – | – |
| N#Cc1ccc(CNC(=O)c2cc(-c3ccc(OC(F)(F)C(F)(F)F)cc3)cc(NC(=O)C3CC3)n2)cc1 [Example I-191] | – | 4.38 | – | – | – | – | – | 100 | 83 | – | – | – | – | – |
| CC(=O)Nc1cc(-c2ccc(OC(F)(F)F)cc2)cc(C(=O)NCc2ccc(C#N)cc2)n1 [Example I-204] | – | – | 3.27 | – | – | – | – | 100 | 100 | 100 | 100 | – | – | – |
| N#Cc1ccc(CNC(=O)c2cc(-c3ccc(OC(F)(F)F)cc3)cc(NC(=O)C3(Cl)CC3)n2)cc1 [Example I-205] | – | – | 4.62 | – | – | – | – | 100 | 100 | 100 | – | – | – | – |
| CC(C)(C)C(=O)Nc1cc(-c2ccc(OC(F)(F)F)cc2)cc(C(=O)NCc2ccc(C#N)cc2)n1 [Example I-206] | – | – | 4.45 | – | – | – | – | 100 | 100 | 100 | – | – | – | – |
| N#Cc1ccc(CNC(=O)c2cc(-c3cccc(OC(F)(F)F)c3)cc(NC(=O)C3CC3)n2)cc1 [Example I-208] | – | 3.81 | 3.71 | – | – | – | – | – | 100 | 100 | 100 | – | – | – |
| NC(=S)c1ccc(CNC(=O)c2cc(-c3ccc(OC(F)(F)F)cc3)cc(NC(=O)C3CC3)n2)cc1 [Example I-214] | – | 3.45 | 3.35 | – | – | – | – | 100 | – | 100 | 83 | – | – | – |
| CN(C(=O)C1CC1)c1cc(-c2ccc(OC(F)(F)F)cc2)cc(C(=O)NCc2ccc(C#N)cc2)n1 [Example I-215, N-(4-Cyanobenzyl)-6-[(cyclopropylcarbonyl)(methyl)amino]-4-[4-(trifluoromethoxy)phenyl]pyridine-2-carboxamide] | 83 | 3.85 | 3.84 | 3.85 | 3.84 | 100 | – | – | – | – | – | 100 | – | – |
| CC(C)ONC(=O)c1cc(-c2ccc(OC(F)(F)F)cc2)cc(NC(=O)C2CC2)n1 [Example I-237, 6-[(Cyclopropylcarbonyl)amino]-N-isopropoxy-4-[4-(trifluoromethoxy)phenyl]pyridine-2-carboxamide] | 100 | – | – | 3.5 | 3.45 | – | 83 | – | – | – | – | – | 3.50 | 3.45 |
| N#Cc1ccc(ONC(=O)c2cc(-c3ccc(OC(F)(F)F)cc3)cc(NC(=O)C3CC3)n2)cc1 [Example I-239] | – | – | – | – | – | – | – | 83 | – | – | 83 | – | 3.72 | 3.13 |
| O=C(NCc1ccc([N+](=O)[O-])s1)c1cc(-c2ccc(OC(F)(F)F)cc2)cc(NC(=O)C2CC2)n1 [Example I-240] | – | – | – | – | – | – | – | 100 | 100 | 83 | – | – | 4.10 | 4.04 |
| N#Cc1ccc(CNC(=O)c2cc(-c3ccc(OC(F)(F)F)cc3)cc(NC(=O)CC(F)(F)F)n2)cc1 [Example I-241] | – | – | – | – | – | – | – | 100 | 100 | 100 | – | – | 3.90 | 3.96 |
| O=C(NC1CC1)c1cc(-c2ccc(C(F)(F)C(F)(F)F)c(F)c2)cc(NC(=O)C2CC2)n1 [Example I-243] | – | – | – | – | – | – | – | 100 | 100 | 100 | 100 | – | 3.94 | – |
| COC1(NC(=O)c2cc(-c3ccc(C(F)(F)C(F)(F)F)c(F)c3)cc(NC(=O)C3CC3)n2)CC1 [Example I-244] | – | – | – | – | – | – | – | 100 | 100 | 100 | 100 | – | 4.08 | 4.08 |
| O=C(NCCC(F)(F)F)c1cc(-c2ccc(C(F)(F)C(F)(F)F)c(F)c2)cc(NC(=O)C2CC2)n1 [Example I-246] | – | – | – | – | – | – | – | 100 | 100 | 100 | 83 | – | 4.37 | 4.32 |
| N#Cc1cc(F)c(CNC(=O)c2cc(-c3ccc(C(F)(F)C(F)(F)F)c(F)c3)cc(NC(=O)C3CC3)n2)c(F)c1 [Example I-248] | – | – | – | – | – | – | – | 100 | 100 | 100 | 100 | – | 4.55 | – |
| N#Cc1ccc(CNC(=O)c2cc(-c3ccc(C(F)(F)C(F)(F)F)c(F)c3)cc(NC(=O)C3CC3)n2)c(F)c1 [Example I-251] | – | – | – | – | – | – | – | 100 | 100 | 100 | 83 | – | 4.45 | 4.38 |
| N#Cc1ccc(/C=N/NC(=O)c2cc(-c3ccc(OC(F)(F)F)cc3)cc(NC(=O)C3CC3)n2)cc1 [Example I-252, N-(6-{[(2E)-2-(4-Cyanobenzylidene)hydrazino]carbonyl}-4-[4-(trifluoromethoxy)phenyl]pyridin-2-yl)cyclopropanecarboxamide] | 100 | – | – | 3.88 | 3.83 | – | 100 | – | – | – | – | 83 | 3.88 | 3.83 |
| CC(C)(CS(C)(=O)=O)NC(=O)c1cc(-c2ccc(C(F)(F)C(F)(F)F)c(F)c2)cc(NC(=O)C2CC2)n1 [Example I-253] | – | – | – | – | – | – | – | 100 | 100 | 100 | 100 | – | 3.96 | 3.91 |
| N#Cc1ccc(CNC(=O)c2cc(-c3ccc(OC(F)(F)C(F)C(F)(F)F)cc3)cc(NC(=O)C3CC3)n2)cc1 (centres unmarked) [Example I-254] | – | – | – | – | – | – | – | 100 | 100 | 83 | 100 | – | 4.03 | 3.98 |
| N#Cc1ccc(CNC(=N)c2cc(-c3ccc(OC(F)(F)F)cc3)cc(NC(=O)C3CC3)n2)cc1 [Example I-258, N-{6-[N-(4-Cyanobenzyl)carbamimidoyl]-4-[4-(trifluoromethoxy)phenyl]pyridin-2-yl}cyclopropanecarboxamide] | 83 | – | – | 2.08 | 4.24 | – | 83 | – | – | – | – | – | 2.08 | 4.24 |
| N#Cc1ccc(NC(=N)c2cc(-c3ccc(OC(F)(F)F)cc3)cc(NC(=O)C3CC3)n2)cc1 [Example I-261] | – | – | – | – | – | – | – | 100 | 83 | 100 | – | – | 2.09 | 4.19 |
| N#Cc1ccc(CNC(=O)c2cc(-c3ccc(Br)c(F)c3)cc(NC(=O)C3CC3)n2)cc1 [Example I-262] | – | – | – | – | – | – | – | 100 | 100 | 100 | 100 | – | 3.75 | 3.73 |
| O=C(NC(=O)c1cc(-c2ccc(C(F)(F)C(F)(F)F)c(F)c2)cc(NC(=O)C2CC2)n1)c1ccc([N+](=O)[O-])cc1 [Example I-263] | – | – | – | – | – | – | – | 100 | 100 | – | – | – | 4.57 | 4.54 |

Source: patent US20190053492A1, “SUBSTITUTED PYRIDINE COMPOUNDS AS PESTICIDES” (Bayer CropScience Aktiengesellschaft, priority 2016, published 2019)
